Earlier results, collected in patent US20080226653A1, “Inhibition of Platelet Aggregation” (THE UNIVERSITY OF MANITOBA, priority 2006, published 2008).

Settings: clinical trials (Patrono et al., 1993)

CC(=O)Oc1ccccc1C(=O)O [aspirin, Aspirin]
efficacy in preventing chronic complications in diabetic patients: only limited efficacy
